Measured values reported in PubChem BioAssay (NCI).
Where “and” joins values, the source holds several entries; their conditions need not be identical. Equal values may be shown once.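 Assay format: 96-well plates, 48-hour exposure. At the GI50, growth is halved. Definition used: TGI = concentration required for complete inhibition of growth.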

Legend:
Assay in all cases: DTP human tumour cell line panel, 48 h
DU-145 prostate = test system: DU-145 prostate
A498 renal = test system: A498 renal
EKVX NSCLC = test system: EKVX NSCLC
SK-MEL-2 melanoma = test system: SK-MEL-2 melanoma
TK-10 renal = test system: TK-10 renal
A549 NSCLC = test system: A549 NSCLC
SN12C renal = test system: SN12C renal
HL-60(TB) leukemia = test system: HL-60(TB) leukemia
HOP-92 NSCLC = test system: HOP-92 NSCLC
HCC-2998 colon = test system: HCC-2998 colon
NCI-H226 lung = test system: NCI-H226 lung
SR leukemia = test system: SR leukemia

Structure (SMILES)	TGI (DU-145 prostate) [µM]	GI50 (A498 renal) [µM]	TGI (A498 renal) [µM]	GI50 (EKVX NSCLC) [µM]	TGI (EKVX NSCLC) [µM]	GI50 (SK-MEL-2 melanoma) [µM]	TGI (SK-MEL-2 melanoma) [µM]	GI50 (TK-10 renal) [µM]	TGI (TK-10 renal) [µM]	TGI (A549 NSCLC) [µM]	TGI (SN12C renal) [µM]	GI50 (HL-60(TB) leukemia) [µM]	TGI (HL-60(TB) leukemia)	GI50 (HOP-92 NSCLC) [µM]	TGI (HOP-92 NSCLC)	TGI (HCC-2998 colon) [µM]	GI50 (NCI-H226 lung) [µM]	TGI (NCI-H226 lung)	TGI (SR leukemia) [µM]
CCCCCCCCCC[C@@H](O)[C@H]1CC[C@H]([C@H]2CC[C@H]([C@H](O)CCCCCCCCCC[C@@H]3CC(CC(C)=O)C(=O)O3)O2)O1 (stereo not given in full)	> 50	7.44	> 50	1.57	> 50	4.06	> 50	2.33	> 50	> 50	> 50	2.25	9.6 µM and > 50 µM	2.41	8.42 µM and > 50 µM	> 50	1.43	6.56 µM and > 50 µM	–
Cc1sc2nc3n(c(=O)c2c1C)N=CN(c1ccccc1)C3	> 100	–	> 100	–	> 100	–	> 100	–	> 100	> 100	> 100	–	–	–	79.8 µM	> 100	–	> 100 µM	> 100
Cc1cc2c(c(C(=O)NCCC(=O)O)c1)Oc1c(cc(C)cc1C(=O)NCCC(=O)O)S2	> 100	–	–	–	> 100	–	> 100	–	> 100	> 100	> 100	–	–	–	> 100 µM	> 100	–	> 100 µM	> 100
COC(=O)C1=C(C(=O)OC)C2OC1C1C2C2(C)C(C)=C(C)C1(C)S2=O (stereo not given)	21.1	–	68.4	–	27.6	–	28	–	29.8	> 55.8	31.1	–	–	–	32.7 µM	38.3	–	22.9 µM	–
O=c1oc2ccccc2c(O)c1C(c1cc(OCc2ccccc2)cc(OCc2ccccc2)c1)c1c(O)c2ccccc2oc1=O	24.5	–	32.1	–	41.8	–	27.3	–	33.4	> 56.4	21.3	–	–	–	> 28.3 µM	11.9	–	> 45.3 µM	15
O=C1CC2(C[C@@H]3CCCCCCCCC[C@@H](C3)C2)N1 (stereo not given in full)	–	–	30.9	–	28.2	–	37.7	–	31.2	38.4	30.8	–	38.8 µM	–	23 µM	31.9	–	30.8 µM	30.7
CCOC(=O)c1c(NC(=O)c2ccccc2)sc2c1CCCC2	> 100	–	> 100	–	> 100	–	> 100	–	> 100	–	> 100	–	> 100 µM	–	–	–	–	> 100 µM	–
CCOc1ccc(N/C(=C(/C(Cl)=C(/Cl)NCCN)[N+](=O)[O-])n2nnc3ccccc32)cc1	–	–	> 100	–	> 100	–	> 100	–	–	> 100	> 100	–	–	–	–	> 100	–	> 100 µM	–
CC[C@@H]1CC[C@@H]2[C@H](CC[C@]3(C)[C@@H](O)CC[C@@H]23)[C@H]1C(=O)O	> 100	–	> 100	–	> 100	–	> 100	–	> 100	> 100	> 100	–	> 100 µM	–	> 100 µM	> 100	–	> 100 µM	–
COc1ccc2nc(-c3ccc(OCc4ccccc4)cc3)ccc2c1	–	–	–	–	> 100	–	–	–	> 100	> 100	> 100	–	> 100 µM	–	> 100 µM	> 100	–	> 100 µM	> 100
CC1C(c2cc(C(C)(C)C)c(O)c(C(C)(C)C)c2)c2cc3c(cc2OC1N1CCOCC1)OCO3 (stereo not given)	> 100	–	–	–	> 100	–	67.3	–	31.2	48	> 100	–	–	–	–	33.4	–	–	> 100
O=C(Cc1nc2ccc(C(=O)c3ccccc3)cc2[nH]c1=O)C(=O)Nc1ccc(Br)cc1	–	–	> 100	–	> 100	–	> 100	–	> 100	> 100	> 100	–	> 100 µM	–	> 100 µM	–	–	> 100 µM	–
CC(C)(C)OC(=O)NC(C)(C)C(=O)NCCC(=O)O	–	–	> 100	–	> 100	–	> 100	–	> 100	> 100	> 100	–	–	–	–	–	–	> 100 µM	–
O=C1CC(O)c2c1csc2Br (stereo not given)	88	–	–	–	> 100	–	> 100	–	38.2	> 100	87.9	–	–	–	–	44	–	–	–
COc1ccc(C2C(Cl)C(=O)N2NC(=O)c2ccc(NC(C)=O)cc2)cc1 (stereo not given)	–	–	> 100	–	> 100	–	> 100	–	> 100	> 100	> 100	–	> 100 µM	–	> 100 µM	–	–	> 100 µM	–
CCN(CC)CCOC(c1cc(OC)ccc1OC)c1ccc2n1-c1ccccc1OC2 (stereo not given)	60.7	–	24.1	–	33.1	–	26	–	25.4	26.9	7.69	–	30.4 µM	–	9.37 µM	20.9	–	14.6 µM	–
CCCN=C1CC(C)Nc2ccccc2N1 (stereo not given)	> 100	–	> 100	–	> 100	–	> 100	–	> 100	> 100	> 100	–	> 100 µM	–	–	–	–	> 100 µM	–
Cc1ccc2c(c1C)CC1(Cc3c(ccc4c3CCC4)C1=O)C2=O (stereo not given)	> 100	–	> 100	–	> 100	–	> 100	–	> 100	> 100	> 100	–	> 100 µM	–	> 100 µM	> 100	–	> 100 µM	–
CCOP(=O)(OCC)[C@H](O)c1ccsc1	> 100	–	> 100	–	> 100	–	> 100	–	> 100	> 100	> 100	–	–	–	–	> 100	–	> 100 µM	> 100
O=c1c2c3ccccc3[nH]c2c2cccc3c2n1CCC3	> 100	–	> 100	–	95.1	–	–	–	> 100	> 100	> 100	–	–	–	> 100 µM	> 100	–	> 100 µM	67.5
COC1(C)CC2N(C(=O)c3ccccc3)N=C(c3ccccc3)CC2(C)O1 (stereo not given)	–	–	> 100	–	–	–	> 100	–	–	> 100	> 100	–	> 100 µM	–	> 100 µM	> 100	–	> 100 µM	–
